From ChEMBL document CHEMBL1201862, “PubChem BioAssay data set” (2004) come the findings set out here.

Some test systems named below: CCRF-CEM; HCC 2998; HCT-15; HOP-92; Malme-3M; NCI-H460; OVCAR-3; OVCAR-5; SK-MEL-2; SK-OV-3; SNB-75; UACC-62; UO-31; HOP-62; SF-539; SK-MEL-5.
Holding throughout (assay): growth of human tumour cells (NCI), 48 h

Counter-ions that a name gives are not always drawn.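 Assay format: 96-well plates, 48-hour exposure. At the GI50, growth is halved.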 Active and inactive are the calls of the source. Cut-off read from the data, not from the text of the source: active = GI50 up to about 1.1 µM and inactive = higher.

As for `CCOC(=O)N1CCN(P(=O)(Nc2ccc3[nH]c(NC(=O)OC)nc3c2)Oc2ccccc2)CC1` (stereo not given), the GI50 with CCRF-CEM was 86.1 µM (inactive); in the test on HCC 2998, > 100 µM (inactive); in the test on HCT-15 it was more than 100 µM; in the test on HOP-92, > 100 µM (inactive); in the test on Malme-3M, 31.6 µM (inactive); with NCI-H460, > 100 µM (inactive). Also, the GI50 is 50.7 µM (inactive) with OVCAR-3; > 100 µM (inactive) in the test with OVCAR-5; > 100 µM (inactive) in the test with SK-MEL-2; > 100 µM (inactive) in the test on SK-OV-3; 77.6 µM (inactive) with SNB-75; 51.1 µM (inactive) in the test on UACC-62. In the test with UO-31, the GI50 was > 100 µM (inactive).
As to `CC1CC2(CCC1OCc1ccccc1)OCCO2` (stereo not given), the GI50 is > 100 µM (inactive) with CCRF-CEM; > 100 µM (inactive) in the test on HCC 2998; more than 100 µM with HCT-15; > 100 µM (inactive) in the test on HOP-62; > 100 µM (inactive) in the test with HOP-92; > 100 µM (inactive) in the test on Malme-3M. The GI50 with NCI-H460, in the test with OVCAR-3, in the test on SF-539, in the test on SK-MEL-2, with SK-MEL-5 and in the test on SK-OV-3 was > 100 µM (inactive) in each case. The GI50 with UACC-62 and in the test with UO-31 was > 100 µM (inactive) throughout.
For `O=C(CCc1nnc2s/c(=C\c3ccc(Cl)c(Cl)c3)c(=O)n12)Nc1ccc(Cl)c(Cl)c1`, the GI50 in the test with CCRF-CEM was 22.5 µM (inactive); in the test with HCC 2998, > 100 µM (inactive); in the test with HCT-15 it was more than 100 µM; in the test with HOP-62, > 100 µM (inactive); in the test with HOP-92 it was 86.7 µM (inactive); with Malme-3M it was > 100 µM (inactive). For the same compound, the GI50 is > 100 µM (inactive) in the test on NCI-H460; 29.9 µM (inactive) in the test on OVCAR-3; > 100 µM (inactive) in the test on OVCAR-5; 51.8 µM (inactive) in the test with SF-539; 43.9 µM (inactive) with SK-MEL-5; > 100 µM (inactive) with SK-OV-3. In addition, the GI50 in the test with SNB-75 was 58.3 µM (inactive); with UACC-62 it was > 100 µM (inactive); in the test with UO-31, > 100 µM (inactive).
As to `CCOC(=O)C1=C(C)CC2C(=O)OC(=O)C2C1(C)C` (stereo not given), the GI50 is > 100 µM (inactive) in the test with CCRF-CEM; > 100 µM (inactive) with HCC 2998; more than 100 µM in the test on HCT-15; > 100 µM (inactive) with HOP-92; > 100 µM (inactive) with Malme-3M; > 100 µM (inactive) in the test on NCI-H460. Moreover, the GI50 in the test on OVCAR-3, with OVCAR-5, in the test with SF-539, in the test with SK-MEL-2, in the test with SK-MEL-5 and in the test with SK-OV-3 was > 100 µM (inactive) each time. In the test with UO-31, the GI50 was > 100 µM (inactive).
For the compound `N#C/C(=C1\N=NC(N)=C(c2ccc(Cl)cc2)C1=O)c1ccc(Cl)cc1`, the GI50 with CCRF-CEM, in the test with HCC 2998, with HOP-62, with HOP-92, in the test with Malme-3M and with NCI-H460 was > 100 µM (inactive) throughout. The GI50 with OVCAR-3, with OVCAR-5, in the test with SF-539, in the test on SK-OV-3, in the test on SNB-75 and with UACC-62 was > 100 µM (inactive) each time. Besides, in the test on UO-31, the GI50 is > 100 µM (inactive).
For `Cc1ccc(NC(=O)CCC/C(CC(=O)c2ccc(Br)cc2)=N/NC(=O)CC#N)cc1`, the GI50 with CCRF-CEM, in the test on HCC 2998, in the test on HOP-62, with HOP-92, in the test on Malme-3M and in the test on NCI-H460 was > 100 µM (inactive) throughout. The GI50 in the test with OVCAR-3, with OVCAR-5, in the test with SK-MEL-2, in the test on SK-MEL-5, in the test with SNB-75 and in the test with UACC-62 was > 100 µM (inactive) throughout. The GI50 in the test on UO-31 is > 100 µM (inactive).
For the compound `CC(NC(C)(C)C)C(=O)c1cccc(Cl)c1` (stereo not given) [BUPROPION HYDROCHLORIDE], the GI50 in the test on CCRF-CEM, in the test on HCC 2998, in the test with HOP-62, in the test with Malme-3M, with NCI-H460 and in the test with OVCAR-3 was > 100 µM (inactive) each time. Besides, the GI50 with SF-539, in the test with SK-MEL-2, in the test with SK-MEL-5, with SK-OV-3, in the test on SNB-75 and in the test on UACC-62 was > 100 µM (inactive) in each case.
With `COC(=O)C1Cc2c([nH]c3ccccc23)C(C2CCCCC2)N1` (stereo not given), the GI50 in the test on CCRF-CEM was > 100 µM (inactive); with HCC 2998, > 100 µM (inactive); in the test with HCT-15, more than 100 µM; in the test on HOP-92, > 100 µM (inactive); with Malme-3M, > 100 µM (inactive); in the test on NCI-H460, > 100 µM (inactive). Further, the GI50 with OVCAR-3 is > 100 µM (inactive); in the test on OVCAR-5 it was > 100 µM (inactive); with SF-539 it was > 100 µM (inactive); with SK-MEL-2, > 100 µM (inactive); in the test on SK-MEL-5 it was 52.7 µM (inactive); in the test with SK-OV-3 it was > 100 µM (inactive). The GI50 in the test on SNB-75, in the test with UACC-62 and in the test with UO-31 was > 100 µM (inactive) throughout.
For `CC(=O)O[C@H]1CCC2[C@@H]3CCC4Nc5[nH]ncc5C[C@]4(C)C3CC[C@@]21C` (stereo not given in full), the GI50 was 22.4 µM (inactive) in the test on CCRF-CEM; 30.2 µM (inactive) in the test with HCC 2998; 44.6 µM in the test on HCT-15; > 100 µM (inactive) in the test on HOP-62; 32.7 µM (inactive) with Malme-3M; > 100 µM (inactive) in the test with NCI-H460. The GI50 was 32.4 µM (inactive) in the test with OVCAR-3; > 100 µM (inactive) in the test with OVCAR-5; > 100 µM (inactive) in the test on SF-539; > 100 µM (inactive) in the test with SK-MEL-2; 24.5 µM (inactive) in the test on SK-MEL-5; > 100 µM (inactive) in the test on SK-OV-3. For the same compound, the GI50 in the test on SNB-75 is 54 µM (inactive); in the test with UACC-62 it was 18.9 µM (inactive); with UO-31, > 100 µM (inactive).
For the compound `C=CCN1COc2c(cc3c4c(cccc24)C(=O)O3)C1`, the GI50 was 19.6 µM (inactive) in the test with CCRF-CEM; > 100 µM (inactive) with HCC 2998; 29.2 µM in the test on HCT-15; > 100 µM (inactive) with HOP-62; 16.2 µM (inactive) in the test with HOP-92; > 10 µM (inactive) in the test with Malme-3M. Besides, the GI50 in the test with NCI-H460 is 43.6 µM (inactive); in the test with OVCAR-3, 25.2 µM (inactive); in the test with OVCAR-5, 36.6 µM (inactive); in the test on SK-MEL-2 it was > 100 µM (inactive); with SK-MEL-5, 44.1 µM (inactive); in the test on SK-OV-3 it was > 100 µM (inactive). The GI50 in the test on SNB-75 is 23.8 µM (inactive); in the test with UACC-62 it was 19.2 µM (inactive); with UO-31, 23.1 µM (inactive).
Consider `CC1CC2C(=O)NC(=O)C2c2[nH]c3ccccc3c21` (stereo not given), for which the GI50 in the test on CCRF-CEM is > 100 µM (inactive); in the test with HCT-15, more than 100 µM; with HOP-62, 74 µM (inactive); in the test with HOP-92 it was 34.4 µM (inactive); with Malme-3M, > 100 µM (inactive); with NCI-H460, > 100 µM (inactive). Moreover, the GI50 was 96.2 µM (inactive) in the test with OVCAR-3; > 100 µM (inactive) in the test with OVCAR-5; > 100 µM (inactive) in the test with SF-539; > 100 µM (inactive) in the test with SK-MEL-2; 70 µM (inactive) in the test with SK-MEL-5; > 100 µM (inactive) in the test with SK-OV-3. The values for the GI50 in the test with SNB-75 and in the test on UO-31 were 1.53 µM (inactive) and 71.4 µM (inactive), respectively.
Turning to `Cc1nc2c(n1CCO)C(=O)c1ccccc1C2=O`, the GI50 in the test with CCRF-CEM is 27.4 µM (inactive); in the test with HCC 2998 it was 41.4 µM (inactive); in the test with HCT-15 it was 31.5 µM; with HOP-62, 28.6 µM (inactive); in the test with Malme-3M, 11.8 µM (inactive); in the test on NCI-H460, 27.3 µM (inactive). Besides, the GI50 is 24.3 µM (inactive) in the test with OVCAR-3; 29.9 µM (inactive) with SF-539; 18.4 µM (inactive) with SK-MEL-2; 11.3 µM (inactive) with SK-MEL-5; > 100 µM (inactive) with SK-OV-3; 82.2 µM (inactive) in the test on SNB-75. The GI50 in the test with UACC-62 was 16.5 µM (inactive); in the test with UO-31, > 100 µM (inactive).
As for `CCOC(=O)CC(C)C1(C=O)CCCCC1=O` (stereo not given), the GI50 in the test with CCRF-CEM was 41.8 µM (inactive); in the test on HCC 2998, > 100 µM (inactive); in the test on HCT-15, 38 µM; in the test with HOP-62 it was > 100 µM (inactive); with Malme-3M, > 100 µM (inactive); in the test on NCI-H460, 60 µM (inactive). In addition, the GI50 in the test with OVCAR-3, with OVCAR-5, in the test on SF-539, in the test on SK-MEL-2, with SK-MEL-5 and with SK-OV-3 was > 100 µM (inactive) each time. Further, the GI50 in the test with SNB-75, with UACC-62 and in the test on UO-31 was > 100 µM (inactive) each time.
As to `CC(=O)OCC(OC(C)=O)C(OC(C)=O)C(OC(C)=O)C(=O)CNn1c(-c2ccccc2Cl)nc2ccccc2c1=O` (stereo not given), the GI50 was 84.3 µM (inactive) with CCRF-CEM; more than 100 µM with HCT-15; > 100 µM (inactive) with HOP-62; > 100 µM (inactive) in the test with Malme-3M; > 100 µM (inactive) in the test on NCI-H460; > 100 µM (inactive) in the test with OVCAR-3. Further, the GI50 in the test with OVCAR-5, in the test with SF-539, in the test with SK-MEL-2, in the test on SK-MEL-5, in the test with SK-OV-3 and in the test with SNB-75 was > 100 µM (inactive) in each case. The GI50 in the test on UACC-62 and with UO-31 was > 100 µM (inactive) throughout.
